Test results: patent publication US20100137449A1, “SUBSTITUTED 1,3-CYCLOPENTADIONE MULTI-TARGET PROTEIN KINASE MODULATORS OF CANCER, ANGIOGENESIS AND THE INFLAMMATORY PATHWAYS ASSOCIATED THEREWITH” (METAPROTEOMICS, LLC, priority 2007, published 2010)

Legend:
Experiment in all cases: KinaseProfiler Assay
[1] = biological target: CDK1/cyclinB(h) (Homo sapiens, UniProt P06493)
[2] = biological target: CDK5/p25(h) (Homo sapiens, UniProt Q00535)
[3] = biological target: EGFR(L861Q)(h) (Homo sapiens, UniProt P00533, L861Q)
[4] = biological target: T1, EphB3(h) (Homo sapiens, UniProt P54753)
T1 sequence (P54753 34-998): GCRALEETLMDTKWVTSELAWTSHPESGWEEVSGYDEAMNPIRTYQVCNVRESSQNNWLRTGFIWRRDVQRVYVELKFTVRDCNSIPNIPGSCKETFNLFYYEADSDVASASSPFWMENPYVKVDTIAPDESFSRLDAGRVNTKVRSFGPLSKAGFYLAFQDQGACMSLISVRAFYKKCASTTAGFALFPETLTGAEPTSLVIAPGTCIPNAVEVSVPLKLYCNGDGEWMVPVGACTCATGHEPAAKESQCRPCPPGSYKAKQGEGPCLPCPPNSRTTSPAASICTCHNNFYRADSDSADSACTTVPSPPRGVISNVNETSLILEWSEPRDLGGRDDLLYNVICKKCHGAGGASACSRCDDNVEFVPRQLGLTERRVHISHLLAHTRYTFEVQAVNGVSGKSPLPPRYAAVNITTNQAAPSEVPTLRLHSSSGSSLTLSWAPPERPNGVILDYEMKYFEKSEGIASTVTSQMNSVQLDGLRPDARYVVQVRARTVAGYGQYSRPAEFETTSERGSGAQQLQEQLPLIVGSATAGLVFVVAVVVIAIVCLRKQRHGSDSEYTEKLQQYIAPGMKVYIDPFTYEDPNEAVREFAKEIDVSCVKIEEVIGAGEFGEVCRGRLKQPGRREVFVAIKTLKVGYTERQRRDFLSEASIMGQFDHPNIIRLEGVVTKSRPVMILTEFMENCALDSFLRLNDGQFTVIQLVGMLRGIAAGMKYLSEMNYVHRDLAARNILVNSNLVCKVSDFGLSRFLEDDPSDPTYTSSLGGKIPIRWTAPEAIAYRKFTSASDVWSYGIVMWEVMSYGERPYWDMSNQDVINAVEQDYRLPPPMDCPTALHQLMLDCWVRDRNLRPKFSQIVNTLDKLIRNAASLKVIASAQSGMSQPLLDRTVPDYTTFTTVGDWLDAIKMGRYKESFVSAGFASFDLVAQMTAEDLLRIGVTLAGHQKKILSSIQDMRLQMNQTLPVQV

[5] = biological target: Lyn(h) (Homo sapiens, UniProt P07948)
[6] = biological target: T2, MKK4(m) (Mus musculus, UniProt P47809)
T2 sequence (P47809 1-397): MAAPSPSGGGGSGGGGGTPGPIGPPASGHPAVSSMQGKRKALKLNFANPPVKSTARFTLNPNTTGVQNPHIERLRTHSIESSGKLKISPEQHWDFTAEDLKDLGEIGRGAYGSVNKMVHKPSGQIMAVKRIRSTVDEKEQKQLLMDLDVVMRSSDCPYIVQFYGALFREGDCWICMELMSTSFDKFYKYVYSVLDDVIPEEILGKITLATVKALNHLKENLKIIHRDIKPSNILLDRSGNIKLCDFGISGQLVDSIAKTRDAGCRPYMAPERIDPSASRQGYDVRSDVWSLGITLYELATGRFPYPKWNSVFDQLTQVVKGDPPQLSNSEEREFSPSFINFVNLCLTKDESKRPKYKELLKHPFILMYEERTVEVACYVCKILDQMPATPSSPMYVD

[7] = biological target: NEK7(h) (Homo sapiens, UniProt Q8TDX7)
[8] = biological target: Pim-3(h) (Homo sapiens, UniProt Q86V86)
[9] = biological target: Rsk3(h) (Homo sapiens, UniProt Q15349)
[10] = biological target: SRPK1(h) (Homo sapiens, UniProt Q96SB4)
[11] = biological target: Syk(h) (Homo sapiens, UniProt P43405)
[12] = biological target: Yes(h) (Homo sapiens, UniProt P07947)
Sequence of Yes(h) (P07947 whole entry): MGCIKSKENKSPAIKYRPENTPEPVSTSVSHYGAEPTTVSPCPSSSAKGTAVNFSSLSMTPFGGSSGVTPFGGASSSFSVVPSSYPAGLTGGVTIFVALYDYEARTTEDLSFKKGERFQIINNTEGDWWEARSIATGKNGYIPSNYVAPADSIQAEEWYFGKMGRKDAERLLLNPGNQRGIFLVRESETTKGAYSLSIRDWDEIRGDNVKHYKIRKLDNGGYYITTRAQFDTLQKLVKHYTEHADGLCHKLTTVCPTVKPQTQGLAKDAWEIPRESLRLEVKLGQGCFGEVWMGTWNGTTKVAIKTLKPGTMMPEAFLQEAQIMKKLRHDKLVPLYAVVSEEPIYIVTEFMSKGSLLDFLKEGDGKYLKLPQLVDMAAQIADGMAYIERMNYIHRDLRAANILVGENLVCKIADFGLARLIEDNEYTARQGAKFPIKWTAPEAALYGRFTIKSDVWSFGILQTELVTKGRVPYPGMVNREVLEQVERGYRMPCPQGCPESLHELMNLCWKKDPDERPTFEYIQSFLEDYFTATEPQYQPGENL

Sequence of SRPK1(h) (Q96SB4 whole entry): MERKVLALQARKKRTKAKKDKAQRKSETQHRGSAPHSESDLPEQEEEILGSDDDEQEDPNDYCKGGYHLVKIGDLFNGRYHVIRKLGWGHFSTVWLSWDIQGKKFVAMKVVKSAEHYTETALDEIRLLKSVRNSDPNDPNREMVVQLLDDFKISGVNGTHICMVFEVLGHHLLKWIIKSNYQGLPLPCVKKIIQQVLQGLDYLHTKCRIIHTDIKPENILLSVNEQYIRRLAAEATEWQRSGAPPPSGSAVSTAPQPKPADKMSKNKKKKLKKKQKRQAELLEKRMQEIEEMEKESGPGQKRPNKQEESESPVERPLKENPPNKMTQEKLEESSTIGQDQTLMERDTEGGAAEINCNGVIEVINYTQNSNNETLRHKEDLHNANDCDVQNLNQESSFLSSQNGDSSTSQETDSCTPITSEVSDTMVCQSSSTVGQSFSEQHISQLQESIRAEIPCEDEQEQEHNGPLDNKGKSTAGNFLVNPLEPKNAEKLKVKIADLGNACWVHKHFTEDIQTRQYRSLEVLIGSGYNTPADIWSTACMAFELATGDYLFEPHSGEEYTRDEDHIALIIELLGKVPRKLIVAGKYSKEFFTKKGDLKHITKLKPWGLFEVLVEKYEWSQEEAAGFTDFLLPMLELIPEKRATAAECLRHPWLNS
Sequence of Rsk3(h) (Q15349 whole entry): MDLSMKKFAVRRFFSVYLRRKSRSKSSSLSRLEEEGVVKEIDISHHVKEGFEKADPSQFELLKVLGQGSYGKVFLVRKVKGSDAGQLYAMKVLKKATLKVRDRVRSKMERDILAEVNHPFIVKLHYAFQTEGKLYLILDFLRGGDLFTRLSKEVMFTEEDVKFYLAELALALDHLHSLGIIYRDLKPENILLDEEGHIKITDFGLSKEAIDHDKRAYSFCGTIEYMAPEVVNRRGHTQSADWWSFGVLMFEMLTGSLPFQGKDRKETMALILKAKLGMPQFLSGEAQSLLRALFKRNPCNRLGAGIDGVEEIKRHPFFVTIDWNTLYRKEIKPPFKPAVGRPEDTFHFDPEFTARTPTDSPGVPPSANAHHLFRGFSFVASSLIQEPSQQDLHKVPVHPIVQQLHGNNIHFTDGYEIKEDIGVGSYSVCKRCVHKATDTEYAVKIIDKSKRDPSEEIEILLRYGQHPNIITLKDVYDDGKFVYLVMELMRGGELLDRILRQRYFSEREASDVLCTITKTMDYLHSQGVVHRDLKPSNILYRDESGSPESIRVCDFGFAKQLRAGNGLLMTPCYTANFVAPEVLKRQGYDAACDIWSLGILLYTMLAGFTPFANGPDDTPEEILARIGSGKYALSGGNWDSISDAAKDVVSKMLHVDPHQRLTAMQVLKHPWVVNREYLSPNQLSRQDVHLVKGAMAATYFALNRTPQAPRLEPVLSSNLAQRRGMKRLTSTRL
Sequence of CDK1/cyclinB(h) (P06493 whole entry): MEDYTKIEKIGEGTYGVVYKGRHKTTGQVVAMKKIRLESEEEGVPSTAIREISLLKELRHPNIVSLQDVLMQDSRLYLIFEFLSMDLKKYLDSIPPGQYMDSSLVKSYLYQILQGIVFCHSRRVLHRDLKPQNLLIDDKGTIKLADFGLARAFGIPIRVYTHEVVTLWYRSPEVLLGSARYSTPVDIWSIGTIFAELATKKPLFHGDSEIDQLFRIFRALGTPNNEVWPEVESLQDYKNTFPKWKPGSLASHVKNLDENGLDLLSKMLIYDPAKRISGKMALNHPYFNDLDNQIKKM
Sequence of CDK1/cyclinB(h) (P14635 whole entry partner): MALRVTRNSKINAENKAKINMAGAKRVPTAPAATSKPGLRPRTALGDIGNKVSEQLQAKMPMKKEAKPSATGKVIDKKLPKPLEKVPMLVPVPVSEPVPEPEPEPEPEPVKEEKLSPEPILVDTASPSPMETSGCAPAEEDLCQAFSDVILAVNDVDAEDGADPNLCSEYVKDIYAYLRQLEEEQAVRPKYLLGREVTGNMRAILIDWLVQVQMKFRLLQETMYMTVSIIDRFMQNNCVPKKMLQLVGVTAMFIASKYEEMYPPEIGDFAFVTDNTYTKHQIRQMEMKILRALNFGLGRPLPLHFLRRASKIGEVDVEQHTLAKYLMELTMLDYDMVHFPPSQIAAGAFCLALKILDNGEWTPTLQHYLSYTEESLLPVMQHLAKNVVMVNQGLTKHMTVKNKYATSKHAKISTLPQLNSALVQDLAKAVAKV
Sequence of EGFR(L861Q)(h) (P00533 25-1210 L861Q): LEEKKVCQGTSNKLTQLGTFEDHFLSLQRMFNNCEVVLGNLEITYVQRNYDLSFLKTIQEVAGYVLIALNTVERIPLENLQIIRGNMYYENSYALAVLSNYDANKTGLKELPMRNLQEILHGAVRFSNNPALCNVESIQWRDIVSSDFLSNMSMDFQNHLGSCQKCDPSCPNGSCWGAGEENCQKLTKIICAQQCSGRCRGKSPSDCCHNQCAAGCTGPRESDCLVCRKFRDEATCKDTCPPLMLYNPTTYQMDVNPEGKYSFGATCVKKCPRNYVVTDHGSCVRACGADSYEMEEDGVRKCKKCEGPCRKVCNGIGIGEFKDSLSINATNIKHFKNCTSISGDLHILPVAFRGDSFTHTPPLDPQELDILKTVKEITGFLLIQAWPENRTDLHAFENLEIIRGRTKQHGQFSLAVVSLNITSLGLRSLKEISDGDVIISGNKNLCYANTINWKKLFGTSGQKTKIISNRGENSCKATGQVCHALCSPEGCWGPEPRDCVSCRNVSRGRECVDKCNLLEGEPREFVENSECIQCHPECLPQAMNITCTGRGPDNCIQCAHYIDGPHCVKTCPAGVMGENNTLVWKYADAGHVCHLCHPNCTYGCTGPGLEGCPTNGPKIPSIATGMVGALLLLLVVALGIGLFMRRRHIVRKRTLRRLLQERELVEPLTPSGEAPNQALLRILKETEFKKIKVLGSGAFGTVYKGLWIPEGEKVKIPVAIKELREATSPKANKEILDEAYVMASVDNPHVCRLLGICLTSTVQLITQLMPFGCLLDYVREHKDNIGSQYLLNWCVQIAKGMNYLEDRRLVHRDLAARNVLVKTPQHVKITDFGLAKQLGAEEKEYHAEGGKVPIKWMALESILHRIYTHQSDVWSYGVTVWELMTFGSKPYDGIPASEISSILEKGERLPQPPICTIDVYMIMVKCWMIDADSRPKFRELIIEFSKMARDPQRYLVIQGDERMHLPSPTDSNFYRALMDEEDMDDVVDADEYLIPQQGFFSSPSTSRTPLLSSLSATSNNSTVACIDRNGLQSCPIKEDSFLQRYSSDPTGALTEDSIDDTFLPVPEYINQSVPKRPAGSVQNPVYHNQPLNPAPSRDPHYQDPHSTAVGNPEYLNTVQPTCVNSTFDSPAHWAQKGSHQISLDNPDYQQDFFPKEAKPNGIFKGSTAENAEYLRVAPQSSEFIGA
Sequence of CDK5/p25(h) (Q00535 whole entry): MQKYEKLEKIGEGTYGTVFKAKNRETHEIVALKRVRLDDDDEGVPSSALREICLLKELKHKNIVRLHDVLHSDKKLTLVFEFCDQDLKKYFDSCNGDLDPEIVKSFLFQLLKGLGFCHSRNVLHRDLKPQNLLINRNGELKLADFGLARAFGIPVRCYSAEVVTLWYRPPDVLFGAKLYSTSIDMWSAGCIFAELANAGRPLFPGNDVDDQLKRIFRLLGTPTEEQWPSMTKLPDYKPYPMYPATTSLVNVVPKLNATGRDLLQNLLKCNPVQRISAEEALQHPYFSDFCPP
Sequence of CDK5/p25(h) (Q15078 99-307 partner limits assumed): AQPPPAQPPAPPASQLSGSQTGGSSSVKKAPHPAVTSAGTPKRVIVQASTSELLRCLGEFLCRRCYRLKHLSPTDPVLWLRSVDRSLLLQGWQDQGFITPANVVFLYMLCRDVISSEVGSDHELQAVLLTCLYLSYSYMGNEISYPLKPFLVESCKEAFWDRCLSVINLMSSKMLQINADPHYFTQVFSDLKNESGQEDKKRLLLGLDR
Sequence of NEK7(h) (Q8TDX7 whole entry): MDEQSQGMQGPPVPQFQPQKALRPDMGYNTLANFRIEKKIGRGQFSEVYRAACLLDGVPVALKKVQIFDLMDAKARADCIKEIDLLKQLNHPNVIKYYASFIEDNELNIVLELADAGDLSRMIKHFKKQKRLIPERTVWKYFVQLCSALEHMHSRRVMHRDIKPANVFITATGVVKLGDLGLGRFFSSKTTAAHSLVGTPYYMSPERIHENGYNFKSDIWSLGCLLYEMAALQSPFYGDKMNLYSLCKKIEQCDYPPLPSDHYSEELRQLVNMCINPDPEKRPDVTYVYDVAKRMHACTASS

CC(C)CCC(=O)[C@]1(O)C(O)=C(C(=O)C(C)C)C(=O)[C@H]1CCC(C)C [TH2, tetrahydroiso-cohumulone]
kinase inhibition ([1]; 1 μg/ml): 111% of control
kinase inhibition ([1]; 5 μg/ml): 111% of control
kinase inhibition ([1]; 25 μg/ml): 90% of control
kinase inhibition ([1]; 50 μg/ml): 86% of control
kinase inhibition ([1]; 100 μg/ml): 74% of control
kinase inhibition ([2]; 1 μg/ml): 93% of control
kinase inhibition ([2]; 5 μg/ml): 96% of control
kinase inhibition ([2]; 25 μg/ml): 103% of control
kinase inhibition ([2]; 50 μg/ml): 88% of control
kinase inhibition ([2]; 100 μg/ml): 77% of control
kinase inhibition ([3]; 1 μg/ml): 98% of control
kinase inhibition ([3]; 5 μg/ml): 91% of control
kinase inhibition ([3]; 25 μg/ml): 94% of control
kinase inhibition ([3]; 50 μg/ml): 99% of control
kinase inhibition ([3]; 100 μg/ml): 93% of control
kinase inhibition ([4]; 1 μg/ml): 80% of control
kinase inhibition ([4]; 5 μg/ml): 71% of control
kinase inhibition ([4]; 25 μg/ml): 69% of control
kinase inhibition ([4]; 50 μg/ml): 62% of control
kinase inhibition ([4]; 100 μg/ml): 57% of control
kinase inhibition ([5]; 1 μg/ml): 145% of control
kinase inhibition ([5]; 5 μg/ml): 146% of control
kinase inhibition ([5]; 25 μg/ml): 139% of control
kinase inhibition ([5]; 50 μg/ml): 91% of control
kinase inhibition ([5]; 100 μg/ml): 68% of control
kinase inhibition ([6]; 1 μg/ml): 120% of control
kinase inhibition ([6]; 5 μg/ml): 127% of control
kinase inhibition ([6]; 25 μg/ml): 91% of control
kinase inhibition ([6]; 50 μg/ml): 95% of control
kinase inhibition ([6]; 100 μg/ml): 85% of control
kinase inhibition ([7]; 1 μg/ml): 103% of control
kinase inhibition ([7]; 5 μg/ml): 107% of control
kinase inhibition ([7]; 25 μg/ml): 98% of control
kinase inhibition ([7]; 50 μg/ml): 95% of control
kinase inhibition ([7]; 100 μg/ml): 84% of control
kinase inhibition ([8]; 1 μg/ml): 104% of control
kinase inhibition ([8]; 5 μg/ml): 104% of control
kinase inhibition ([8]; 25 μg/ml): 72% of control
kinase inhibition ([8]; 50 μg/ml): 70% of control
kinase inhibition ([8]; 100 μg/ml): 64% of control
kinase inhibition ([9]; 1 μg/ml): 112% of control
kinase inhibition ([9]; 5 μg/ml): 106% of control
kinase inhibition ([9]; 25 μg/ml): 97% of control
kinase inhibition ([9]; 50 μg/ml): 88% of control
kinase inhibition ([9]; 100 μg/ml): 85% of control
kinase inhibition ([10]; 1 μg/ml): 47% of control
kinase inhibition ([10]; 5 μg/ml): 89% of control
kinase inhibition ([10]; 25 μg/ml): 61% of control
kinase inhibition ([10]; 50 μg/ml): 53% of control
kinase inhibition ([10]; 100 μg/ml): 45% of control
kinase inhibition ([11]; 1 μg/ml): 135% of control
kinase inhibition ([11]; 5 μg/ml): 120% of control
kinase inhibition ([11]; 25 μg/ml): 63% of control
kinase inhibition ([11]; 50 μg/ml): 37% of control
kinase inhibition ([11]; 100 μg/ml): 47% of control
kinase inhibition ([12]; 1 μg/ml): 92% of control
kinase inhibition ([12]; 5 μg/ml): 81% of control
kinase inhibition ([12]; 25 μg/ml): 116% of control
kinase inhibition ([12]; 50 μg/ml): 111% of control
kinase inhibition ([12]; 100 μg/ml): 104% of control
